# Assay results: ChEMBL document CHEMBL4619821, “Bioinspired Hybrid Fluorescent Ligands for the FK1 Domain of FKBP52” (J Med Chem, 2020)
# Active and inactive are the calls of the source. The rule behind the calls is not given here. Square brackets hold non-standard residues; d marks the D form. Peptide text beside a SMILES is read from it. * marks the point of attachment. Pro(trans-4-F) = O=C(O)[C@@H]1C[C@@H](F)CN1; Dansyl = CN(C)c1cccc2c(S(=O)(=O)*)cccc12; Pro(cis-4-F) = O=C(O)[C@@H]1C[C@H](F)CN1; Hyp = O=C(O)[C@@H]1C[C@@H](O)CN1; hPhe = N[C@@H](CCc1ccccc1)C(=O)O; 2Pal = N[C@@H](Cc1ccccn1)C(=O)O; 3Pal = N[C@@H](Cc1cccnc1)C(=O)O; 4Pal = N[C@@H](Cc1ccncc1)C(=O)O; Tic = O=C(O)[C@@H]1Cc2ccccc2CN1; Tle = CC(C)(C)[C@H](N)C(=O)O; Pip = O=C(O)[C@@H]1CCCCN1; Ac5c = NC1(C(=O)O)CCCC1
# How the values were obtained:
# [1] = molecular target: T1, Peptidyl-prolyl cis-trans isomerase FKBP4 (Homo sapiens) (UniProt Q02790); assay: (§1) Binding affinity to FKBP52 FK1 domain (1 to 148 residues) (unknown origin) by Dansyl fluorescence based assay
# T1 sequence (whole entry): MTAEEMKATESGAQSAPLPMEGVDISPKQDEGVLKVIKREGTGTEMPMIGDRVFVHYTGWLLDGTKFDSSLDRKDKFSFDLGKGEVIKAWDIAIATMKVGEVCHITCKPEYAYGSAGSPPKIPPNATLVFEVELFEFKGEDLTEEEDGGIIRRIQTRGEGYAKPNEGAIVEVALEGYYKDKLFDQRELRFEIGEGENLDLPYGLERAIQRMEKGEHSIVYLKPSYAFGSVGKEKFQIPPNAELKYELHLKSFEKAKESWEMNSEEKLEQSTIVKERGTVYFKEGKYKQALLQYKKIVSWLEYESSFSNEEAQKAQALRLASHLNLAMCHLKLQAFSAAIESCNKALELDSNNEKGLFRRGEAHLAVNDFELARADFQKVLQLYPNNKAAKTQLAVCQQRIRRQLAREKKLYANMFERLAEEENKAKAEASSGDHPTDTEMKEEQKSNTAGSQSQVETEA
# [2] = molecular target: T2, Peptidyl-prolyl cis-trans isomerase FKBP4 (Homo sapiens, UniProt Q02790); assay: as §1
# T2 sequence (Q02790 whole entry): T1 sequence (whole entry)
# [3] = molecular target: T2, Peptidyl-prolyl cis-trans isomerase FKBP4; assay: Binding affinity to FKBP52 FK1 domain (1 to 148 residues) (unknown origin) by isothermal calorimetric analysis
# [4] = molecular target: T1, Peptidyl-prolyl cis-trans isomerase FKBP4 (Homo sapiens); assay: Binding affinity to FKBP52 FK1 domain (1 to 148 residues) (unknown origin) in PBS at 20 uM in presence of one equivalent FK506 by FRET assay
# [5] = molecular target: T1, Peptidyl-prolyl cis-trans isomerase FKBP4 (Homo sapiens); assay: Binding affinity to FKBP52 FK1 domain (1 to 148 residues) (unknown origin) at 10 uM in presence of FK506 by Dansyl fluorescence based assay
# [6] = molecular target: T2, Peptidyl-prolyl cis-trans isomerase FKBP4; assay: Binding affinity to FKBP52 FK1 domain (1 to 148 residues) (unknown origin) in PBS by fluorescence spectroscopy
# [7] = molecular target: T1, Peptidyl-prolyl cis-trans isomerase FKBP4 (Homo sapiens); assay: Binding affinity to FKBP52 FK1 domain (1 to 148 residues) (unknown origin) in PBS assessed as induction of blue shift by measuring emission wavelength at 10 to 20 uM by fluorimetric analysis (reference value: 560 nm)
# [8] = molecular target: T1, Peptidyl-prolyl cis-trans isomerase FKBP4 (Homo sapiens); assay: Binding affinity to FKBP52 FK1 domain (1 to 148 residues) (unknown origin) assessed as blue shift at 10 uM by Dansyl fluorescence based assay
# [9] = molecular target: T1, Peptidyl-prolyl cis-trans isomerase FKBP4 (Homo sapiens); assay: Binding affinity to FKBP52 FK2 domain (167 to 253 residues) (unknown origin) in PBS at 10 uM by Dansyl fluorescence based assay relative to control
# [10] = molecular target: T1, Peptidyl-prolyl cis-trans isomerase FKBP4 (Homo sapiens); assay: Binding affinity to FKBP52 FK1 domain (1 to 148 residues) (unknown origin) assessed as increase in fluorescence at 10 uM by Dansyl fluorescence based assay relative to control
# [11] = molecular target: T1, Peptidyl-prolyl cis-trans isomerase FKBP4 (Homo sapiens); assay: Binding affinity to FKBP52 FK1 domain (1 to 148 residues) (unknown origin) in PBS assessed as quenching of Trp emission at 10 to 20 uM by fluorimetric analysis
# [12] = Solubility of the compound; type: physicochemical
# [13] = molecular target: T1, Peptidyl-prolyl cis-trans isomerase FKBP4 (Homo sapiens); assay: Binding affinity to FKBP52 FK1 domain (1 to 148 residues) (unknown origin) at 10 uM by Dansyl fluorescence based assay
Compound,Kd [3] [µM],also measured
CN(C)c1cccc2c(S(=O)(=O)N3CCC[C@H]3C(N)=O)cccc12,–,Activity [1]: inactive
CN(C)c1cccc2c(S(=O)(=O)N3CCCC[C@H]3C(=O)N[C@@H](Cc3c[nH]c4ccccc34)C(=O)N[C@@H](CCCNC(=N)N)C(=O)O)cccc12 (Dansyl-[Pip]-Trp-Arg-OH),–,Kd [2]: 20 µM
CN(C)c1cccc2c(S(=O)(=O)N3C[C@@H](F)C[C@H]3C(=O)N[C@@H](CCc3ccccc3)C(=O)N[C@@H](CCCNC(=N)N)C(=O)O)cccc12 (Dansyl-[Pro(cis-4-F)]-[hPhe]-Arg-OH),1.3,–
CN(C)c1cccc2c(S(=O)(=O)N3CCCC[C@H]3C(=O)N3CCCC[C@H]3C(=O)N[C@@H](CCCNC(=N)N)C(=O)O)cccc12 (Dansyl-[Pip]-[Pip]-Arg-OH),1.1,–
CN(C)c1cccc2c(S(=O)(=O)N3CCCC[C@H]3C(=O)N[C@@H](Cc3ccncc3)C(=O)N[C@@H](CCCNC(=N)N)C(=O)O)cccc12 (Dansyl-[Pip]-[4Pal]-Arg-OH),> 50,–
CN(C)c1cccc2c(S(=O)(=O)N3CCCC[C@H]3C(=O)N[C@@H](Cc3ccccn3)C(=O)N[C@@H](CCCNC(=N)N)C(=O)O)cccc12 (Dansyl-[Pip]-[2Pal]-Arg-OH),3.5,–
CN(C)c1cccc2c(S(=O)(=O)N3CCC[C@H]3C(=O)N[C@@H](CCc3ccccc3)C(=O)N[C@@H](CCCNC(=N)N)C(=O)O)cccc12,5,–
CCCCN(CC(=O)N[C@@H](CCc1ccccc1)C(=O)N[C@@H](CCCNC(=N)N)C(=O)O)S(=O)(=O)c1cccc2c(N(C)C)cccc12,> 50,–
CN(C)c1cccc2c(S(=O)(=O)N3[C@H](C(=O)N[C@@H](CCc4ccccc4)C(=O)N[C@@H](CCCNC(=N)N)C(=O)O)CCC3(C)C)cccc12,–,Kd [2]: > 50 µM
CN(C)c1cccc2c(S(=O)(=O)N3CCCC[C@H]3C(=O)N[C@@H](Cc3cccnc3)C(=O)N[C@@H](CCCNC(=N)N)C(=O)O)cccc12 (Dansyl-[Pip]-[3Pal]-Arg-OH),3,–
CN(C)c1cccc2c(S(=O)(=O)N3CCCC[C@H]3C(=O)N3Cc4ccccc4C[C@H]3C(=O)N[C@@H](CCCNC(=N)N)C(=O)O)cccc12 (Dansyl-[Pip]-[Tic]-Arg-OH),> 50,–
CN(C)c1cccc2c(S(=O)(=O)N3CCCC[C@H]3C(=O)N[C@@H](CCc3ccccc3)C(=O)N[C@@H](CCCNC(=N)N)C(=O)O)cccc12 (Dansyl-[Pip]-[hPhe]-Arg-OH),1.6,Activity [4]: inactive; Activity [5]: inactive; Kd [6]: 4.6 µM; Activity [7]: 537 nm; Activity [8]: 30 nm; Activity [9]: inactive; fold change (FC) [10]: 4; Activity [11]: 67%
CN(C)c1cccc2c(S(=O)(=O)N3Cc4ccccc4C[C@H]3C(=O)N[C@@H](CCc3ccccc3)C(=O)N[C@@H](CCCNC(=N)N)C(=O)O)cccc12 (Dansyl-[Tic]-[hPhe]-Arg-OH),–,Kd [2]: > 50 µM
CN(C)c1cccc2c(S(=O)(=O)N3CCCC[C@H]3C(=O)N[C@@H](CCc3ccccc3)C(=O)O)cccc12.O=C(O)C(F)(F)F (Dansyl-[Pip]-[hPhe]-OH),–,solubility [12]: Insoluble; Activity [13]: inactive
CN(C)c1cccc2c(S(=O)(=O)N3CCCC[C@H]3C(=O)N[C@@H](Cc3ccccc3)C(=O)N[C@@H](CCCNC(=N)N)C(=O)O)cccc12 (Dansyl-[Pip]-Phe-Arg-OH),5.8,–

# Further lines, with some results ahead:
Kd [3] [µM],Compound,also measured
20,CN(C)c1cccc2c(S(=O)(=O)N3C[C@H](F)C[C@H]3C(=O)N[C@@H](CCc3ccccc3)C(=O)N[C@@H](CCCNC(=N)N)C(=O)O)cccc12 (Dansyl-[Pro(trans-4-F)]-[hPhe]-Arg-OH),–
2.9,CN(C)c1cccc2c(S(=O)(=O)N3CCCC[C@H]3C(=O)N[C@H](C(=O)N[C@@H](CCCNC(=N)N)C(=O)O)C(C)(C)C)cccc12 (Dansyl-[Pip]-[Tle]-Arg-OH),–
> 50,CN(C)c1cccc2c(S(=O)(=O)N3CCC[C@@H]3C(=O)N[C@@H](CCc3ccccc3)C(=O)N[C@@H](CCCNC(=N)N)C(=O)O)cccc12,–
10,CN(C)c1cccc2c(S(=O)(=O)N3CCCC[C@H]3C(=O)NC3(C(=O)N[C@@H](CCCNC(=N)N)C(=O)O)CCCC3)cccc12 (Dansyl-[Pip]-[Ac5c]-Arg-OH),–
> 50,CN(C)c1cccc2c(S(=O)(=O)N3C[C@H](O)C[C@H]3C(=O)N[C@@H](CCc3ccccc3)C(=O)N[C@@H](CCCNC(=N)N)C(=O)O)cccc12 (Dansyl-[Hyp]-[hPhe]-Arg-OH),–
